Tests used:
[1] = tested on: DNA damage response, checkpoint and apoptosis proteins in SKOV-3 cells; assay: Immunoblotting, SKOV-3 cells; type: cell-based, human
Procedure: Whole cell and homogenized tumor tissues were lysed in NP-40 lysis buffer [50 mM Tris/HCl, pH 7.4, 150 mM NaCl and 1% Nonidet P40, supplemented with Complete Protrase Inhibitor Cocktail tablets and PhosStop phosphatase inhibitors (Roche, Indianapolis, Ind.)] and prepared as previously described (Madigan, J. P. et al. 2009). Protein (40 μg) was resolved on SDS/PAGE (12% or 15% gels) and transferred onto Immobilon PVDF membrane. The membrane was then blocked for 1 hour at room temperature in 5% (w/v) non-fat milk in TBS-Tween and probed overnight with primary antibodies. After extensive washing, cells were probed with anti-rabbit or anti-mouse IgG-horseradish per oxidase (HRP)-conjugated secondary antibodies (Cell Signaling Technology, Danvers, Mass.) in blocking buffer for 1 h. Membranes were subsequently incubated in Immobilon Western blot Chemiluminescent HRP Substrate (Millipore) and developed on biomax XAR film (Kodak). Antibodies were purchased from Cell Signaling Technology: γH2AX (Ser139), p-Wee1 (Ser 642), Wee1, p-cdc2 (Tyr15), p-BRCA1 (Ser1524), p-Chk1 (Ser345), p-Chk1 (Ser317), Chk-1, phospho-Chk2 (Thr68), PP2Ac, cleaved caspase-3 (Asp175), cleaved PARP (Asp214), p-histone H3 (Ser10), p-ATR (Ser428), and p-(Ser)14-3-3 binding motif.

[2] = tested on: OVCAR-8 cells; assay: Cell-cycle analysis (FACS), OVCAR-8; type: cell-based, human; details: LB100 2 μM
Procedure: For cell-cycle analysis, cells were washed with PBS and fixed overnight in ice-cold 70% ethanol and stored at 4° C. Cells were then centrifuged and resuspended in 100 U RNAse (Sigma-Aldrich), and incubated at 37° C. for 20 min. Propidiumidodide solution (Invitrogen, 500 μL, 50 μg/mL in DPBS) was added to each tube and incubated in the dark at 4° C. overnight. Flow cytometry analysis was performed with CellQuestPro and data analysis was completed with ModFit LT. All data is in triplicate and presented as a percent mean±SD.

[3] = tested on: OVCAR-8 PP2Ac shRNA-expressing cells; assay: Cell viability (MTT) assay, OVCAR-8 PP2Ac shRNA; type: cell-based, human; details: Homo sapiens; OVCAR-8 PP2Ac shRNA (knockdown)
Procedure: Cell survival was measured by the 3-(4,5-dimethylthiazol-2-yl)-2,5-diphenyltetrazolium bromide (MTT, Invitrogen) assay. Cells were seeded at a density of 5,000 cells per well in 96-well plates and incubated at 37° C. in humidified 5% CO2 for 24 hours. The 50% inhibitory concentration (IC50) values were defined as the drug concentrations required to reduce cellular proliferation to 50% of the untreated control well. […] All MTT assays were carried out according to the manufacturer's instructions (Molecular Probes, Eugen, Oreg.). Absorbance values were determined at […] on a Spectra Max 250 spectrophotometer (Molecular Devices, Sunnyvale, Calif.). All MTT assays were performed in triplicate. […] Cells were treated with both drugs for 72 h. Cell viability was analyzed via the MTT assay as described above. Experiments were performed in triplicate, and the data are presented as a percent mean±SD.
To stably knockdown expression of PP2AC, a pLKO.1-puro plasmid-based […] shRNA targeting the sequence: […] (clone ID:TRCN0000002483, Sigma-Aldrich) was employed (PP2AC-shRNA). Additionally, a non-targeting shRNA plasmid (NT-shRNA) that targets no known human sequence was utilized as a control. […]

[4] = tested on: SKOV-3/f-Luc intraperitoneal xenografts; assay: In vivo intraperitoneal ovarian cancer model; set-up: species or system mouse
Procedure: Five- to seven-week-old female nude athymic mice (nu/nu) were obtained from NCI (Frederick, Md.), maintained in accredited animal facilities and used as stipulated by the U.S. Public Health Service Policy on Humane Care and Use of Laboratory Animals, in accordance with institutional reviews (http://oacu.odnih.gov). 10^6 SKOV-3/f-Luc cells were suspended in 100 μL PBS and injected into the intraperitoneal (i.p.) cavity. […] Following tumor inoculation, mice were dosed on days 4, 6, 8, 10, 12 and 14. Dose and treatment schedule were established based on the activity of each agent reported in previous studies (Wei, D. et al. 2013; Lu, J. et al. 2009; Mabuchi, S. et al. 2007). […] Tumor growth was measured twice a week via bioluminescence imaging (BLI) as previously described (Bakhsheshian, J. et al. 2013). D-Luciferin (150 mg/kg, 3 mg/100 μL PBS) was administered via I.P. injection. Relative intensity of the BLI signal for each mouse was calculated by dividing the total luminescence for each session by the total luminescence measured on day 1 of treatment. Mice were continuously observed until indicated euthanasia endpoints (e.g. significant weight loss, ascites). Toxicity of the treatment regimens was assessed by the degree of weight loss and the overall health status was continuously monitored by a veterinarian on staff. […] After 4 h, mice were euthanized and tumors were dissected from the intraperitoneal cavity, snap-frozen in liquid nitrogen, and lysed as described above.
Tumors were established in nude athymic female mice via i.p. injection of SKOV-3 cells transfected with firefly luciferase. […] Following the final treatment, mice were observed until pre-determined health concerns necessitated euthanization. Dose and treatment schedules were determined from biologic profiles of each agent determined in previous studies (Wei, D. et al. 2013; Lu, J. et al. 2009; Mabuchi, S. et al. 2009) and disease progression was monitored by BLI.

For `CN1CCN(C(=O)C2C(C(=O)O)[C@H]3CC[C@@H]2O3)CC1` (stereo partly shown) [LB100], the “expression of p-Ser14-3-3 binding motifs compared to control treatment” value ([1]; LB100-treated SKOV-3 cells) was “widespread increased expression”, the “phosphorylation of γH2AX, Chk2, and BRCA1 at 24 h, and JNK at 72 h” value ([1]; SKOV-3, LB100) was “enhanced and prolonged” and the “phosphorylation of Wee-1 compared to control” value ([1]; SKOV-3, LB100 5 μM, 24 h) was “induced hyperphosphorylation”. For the same molecule, the “G1 (%)” value ([2]; 24 h) was 45.4 ± 1.5%, the “G2/M (%)” value ([2]; 24 h) was 17.6 ± 0.4% and the “S (%)” value ([2]; 24 h) was 37.0 ± 1.6%. For the same molecule, the “G1 (%)” value ([2]; 48 h) was 55.3 ± 0.4%, the “G2/M (%)” value ([2]; 48 h) was 14.9 ± 1.5% and the “S (%)” value ([2]; 48 h) was 29.9 ± 1.1%. For the same molecule, the IC50 [3] was 3.9 ± 0.9 µM, the “day by which massive ascites developed, necessitating euthanasia” value ([4]; LB100 alone 1.5 mg/kg i.p.) was no more than 25 days and the “tumor growth as assessed by BLI” value ([4]; LB100 alone 1.5 mg/kg i.p.) was “did not alter tumor growth”. For the same molecule, the “relative intensity of BLI signal (vs day 1 of treatment)” value ([4]; day 25, each drug 1.5 mg/kg i.p., 6 doses every other day, LB100 1 h before cisplatin in combination) was 12.4±6.7.

— patent US20170136008A1, “OXABICYCLOHEPTANES AND OXABICYCLOHEPTENES FOR THE TREATMENT OF OVARIAN CANCER” (priority 2014, published 2017)
